Assay [1] concerns RAP-42-OVAF2#1MoAb. As to the kind of experiment: FPIA competition of the binding between the antibody and A3 tracer. From the text:
(§1) The hybridoma cell line in P4G1 was cloned by limiting dilution and is designated as hybridoma cell line, RAP-42-OVAF2 #1hc-. The hybridoma cell line, RAP-42-OVAF2 #1hc, was deposited under the terms of the Budapest Treaty with the American Type Culture Collection (ATCC) of 12301 Parklawn Drive, Rockville, Md., 20852, U.S.A., on Mar. 10, 1994, and was granted accession number HB 11568. […] The ring opened rapamycin-specific antibody, designated as RAP-42-OVAF2 #1MoAb, was isolated and purified using conventional methodology.

The subject of assay [2] is FKBP12. Kind of assay: Fluorescent Polarization Immunoassay (FPIA), tracer with FKBP12. In kind it is binding.
Excerpt: as §1

The nature of assay [3]: Fluorescent Polarization Immunoassay (FPIA), tracer background.
Excerpt: as §1

Assay [4] deals with RAP-42-OVAF2#1MoAb. As to the kind of experiment: Fluorescent Polarization Immunoassay (FPIA), tracer with antibody. In kind it is binding.
Excerpt: as §1

Assay [5] has as its system T-cell proliferation (cells from the thymus of normal C3H mice). Kind of assay: comitogen-induced thymocyte proliferation procedure (LAF). It is filed as cell-based. Conditions: for IC50 / inhibition at 0.0001 µM / inhibition at 0.001 µM / inhibition at 0.003 µM / inhibition at 0.01 µM / inhibition at 1 µM: Mus musculus, T-cell; for inhibition at 0.0001 µM: 0.1 nM (so in the source); for inhibition at 0.001 µM: 1 nM; for inhibition at 0.003 µM: 3 nM; for inhibition at 0.01 µM: 10 nM; for ratio compared to rapamycin: >1 = greater inhibition than rapamycin. The protocol: Immunosuppressive activity for a representative compound of this invention was evaluated in an in vitro standard pharmacological test procedure to measure the inhibition of lymphocyte proliferation (LAF).
The comitogen-induced thymocyte proliferation procedure (LAF) was used as an in vitro measure of the immunosuppressive effects of representative compounds. Briefly, cells from the thymus of normal C3H mice are cultured for 72 hours with PHA and IL-1 and pulsed with tritiated thymidine during the last six hours. Cells are cultured with and without various concentrations of rapamycin, cyclosporin A, or test compound. Cells are harvested and incorporated radioactivity is determined. Inhibition of lymphoproliferation is assessed as percent change in counts per minute from non-drug treated controls. For each compound evaluated, rapamycin was also evaluated for the purpose of comparison. An IC50 was obtained for each test compound as well as for rapamycin. […] The results are also expressed as a ratio compared to rapamycin. A positive ratio indicates immunosuppressive activity. […] Calculation of the ratio is shown below. [formula]

Assay [6] deals with glutathione S-transferase-FK506 binding protein (GST-FKBP) (Homo sapiens, UniProt P62942). As to the kind of experiment: Rapamycin Competitive Binding Assay using the Compound of Example 3, receptor based (Table 3). Conditions: compound of Example 3 50 ng/ml, 450 nm. The protocol: The following is an example of the use of the compounds of this invention in a receptor based assay to measure rapamycin levels using a rapamycin-binding protein and the compound of Example 3 as the ligand. Wells of microtiter plates were coated with 0.5 μg/well of the fusion protein, glutathione S-transferase-FK506 binding protein (GST-FKBP), in 100 μl of 0.02M HEPES buffer, pH 7.4. Plates were incubated overnight at 4° C. Plates were washed 3 × with HEPES buffer. Well surfaces were blocked by the addition of 1% bovine serum albumin fraction V (BSA) in HEPES buffer ([…]). Plates were incubated for 1 hour at ambient temperature. Plates were washed three times. Various concentrations of rapamycin were added to the compound of Example 3 (50 ng/ml) and 100 μl of the solutions were added to wells in triplicate. After incubation of the plates at ambient temperature followed by washing the plates with HEPES buffer, 100 μl of diluted avidin-horseradish peroxidase conjugate was added to each well. After incubation for 1 hour at ambient temperature and washing five times, 100 μl of tetramethylbenzidine substrate was added to each well. The plates were incubated for 30 minutes in the dark at ambient temperature. The reactions were stopped and the optical density was read at 450 nm.

Assay [7] has as its system experimental allergic encephalomyelitis model. Conditions: model for multiple sclerosis; Martel et al.; cited from earlier work.
The test system of assay [8] is IgE-like antibodies. Conditions: Martel et al.; cited from earlier work.
The subject of assay [9] is rapamycin specific antibody. Kind of assay: competitive inhibition ELISA, binding of the compound of Example 3 to rapamycin specific antibody (Table 2). Conditions: for OD: compound of Example 3 0.17 μM, 492 nm. The protocol:
The compound of Example 3 was used as a representative compound of this invention. Microtiter plates (Immulon I) were coated overnight with 100 μl of goat anti-mouse antibody (10 μg/ml in 10 mM potassium phosphate buffer, pH 7.2) at 4° C. The plates were flicked and blocked with 100 μl of 1% bovine sera albumin in phosphate buffered saline overnight at 4° C. After flicking and washing the plates three times with 0.2×PBS containing 0.02% Triton X-100 and 0.004% thimerosal, rapamycin specific antibody (100 μl of 1 μg/ml) was added to each well and incubated at room temperature for 1-4 hour. After flicking and washing the plates three times with 0.2×PBS containing 0.02% Triton X- 100 and 0.004% thimerosal, the compound of Example 3 (100 μl, 0.17 μM) in the presence or absence of various concentrations of rapamycin was added and incubated for 1 hour. After flicking and washing the plates three times with 0.2×PBS containing 0.02% Triton X-100 and 0.004% thimerosal, streptavidin conjugated to horseradish peroxidase (100 μl, 0.2 μg/ml) was incubated at room temperature for 1 hour in the dark. After flicking and washing the plates three times with 0.2×PBS containing 0.02% Triton X-100 and 0.004% thimerosal, OPD substrate was added and the plates were incubated covered for 15 min. at room temperature in the dark. The optical density was read on a spectrophotometer at 492 nm.

Assay [10] relates to adjuvant arthritis model. Conditions: model for rheumatoid arthritis; Martel et al.; cited from earlier work.
Assay [11] has as its system Streptavidin. As to the kind of experiment: BIAcore binding of the compound of Example 3 to streptavidin conjugated matrix. Conditions: 2.5 mM injected.

Read-outs that look alike come from different tables or passages of the source.

The term IC50 denotes the concentration that inhibits the measured activity by half. By inhibition is commonly meant how much of the control response was suppressed. Low readings indicate a response near the control, high ones a response far below the control.

glutathione S-transferase-FK506 binding protein (GST-FKBP), sequence (P62942 2-108): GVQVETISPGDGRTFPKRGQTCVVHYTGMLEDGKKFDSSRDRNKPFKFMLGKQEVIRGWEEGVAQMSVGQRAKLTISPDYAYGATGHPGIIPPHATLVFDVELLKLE

Take `CO[C@@H](C[C@@H]1CC[C@@H](C)[C@](O)(C(=O)C(=O)N2CCCC[C@H]2C(=O)O)O1)/C(C)=C/C=C/C=C/[C@@H](C)C[C@@H](C)C(=O)[C@H](OC)[C@H](O)/C(C)=C/[C@@H](C)C(=O)/C=C/[C@H](C)C[C@@H]1CC[C@@H](O)[C@H](OC)C1` [secorapamycin]: the “polarization, competition of the binding between the antibody and A3 tracer” value in [1] (after 38 min) was determined as 89 mP; in assay [1] (at 3 min) it was 105 mP.
Consider `CO[C@H]1C[C@@H]2CC[C@@H](C)[C@@](O)(O2)C(=O)C(=O)N2CCCC[C@H]2C(=O)O[C@H]([C@H](C)C[C@@H]2CC[C@@H](OC(=O)CCC(=O)NCC(=O)Nc3ccc4c(c3)C(=O)OC43c4ccc(O)cc4Oc4cc(O)ccc43)[C@H](OC)C2)CC(=O)[C@H](C)/C=C(\C)[C@@H](O)[C@@H](OC)C(=O)[C@H](C)C[C@H](C)/C=C/C=C/C=C/1C` [rapamycin 42-ester with succinic acid conjugate with 5-glycinylfluoresceinamine], for which the polarization in [2] (tracer 10 nM, after addition of an excess of FKBP12) is 195 mP; in [3] (tracer alone, 10 nM, 100 mM sodium phosphate pH 7.5), 77 mP; in assay [4] (tracer 10 nM, excess of RAP-42-OVAF2#1MoAb), 84 mP.
`CO[C@H]1C[C@@H]2CC[C@@H](C)[C@@](O)(O2)C(=O)C(=O)N2CCCC[C@H]2C(=O)O[C@H]([C@H](C)C[C@@H]2CC[C@@H](O)[C@H](OC)C2)CC(=O)[C@H](C)/C=C(\C)[C@@H](O)[C@@H](OC)C(=O)[C@H](C)C[C@H](C)/C=C/C=C/C=C/1C` [rapamycin]: the half-inhibitory concentration (IC50) in assay [5] (first evaluation) was found to be 6.7 nM; in assay [5] (second evaluation), 0.8 nM. The “Optical Density” value in assay [6] (rapamycin 1.5625 ng/ml) was 2.6160; in assay [6] (rapamycin 3.125 ng/ml), 2.3040; in [6] (rapamycin 6.25 ng/ml) it was 2.0557; in assay [6] (rapamycin 12.5 ng/ml) it was 1.3913; in [6] (rapamycin 25 ng/ml) it was 0.7473; in assay [6] (rapamycin 50 ng/ml), 0.3573. Also, the figures for the “Optical Density” value in assay [6] (rapamycin 100 ng/ml) and in assay [6] (rapamycin 200 ng/ml) were 0.2433 and 0.2177, respectively. Also, in assay [7], the “effect in experimental allergic encephalomyelitis model” value was “effective”. Besides, the results for the “polarization, competition of the binding between the antibody and A3 tracer” value in assay [1] (after 38 min) and in [1] (at 3 min) were 121 mP and 155 mP, respectively. Besides, the “inhibition of formation of IgE-like antibodies” value in [8] is reported as “effectively inhibited”. Moreover, the “% INHIBITION of binding of the compound of Example 3” value is given as 6.6% in [9] (rapamycin 0.005 μM), 7.8% in assay [9] (rapamycin 0.05 μM), 30.1% in [9] (rapamycin 0.5 μM) and 67.6% in assay [9] (rapamycin 5 μM). In addition, the OD in assay [9] (rapamycin 0.005 μM) is listed as 1.866; in assay [9] (rapamycin 0.05 μM) it was 1.842; in [9] (rapamycin 0.5 μM), 1.419; in assay [9] (rapamycin 5 μM), “.705”. Further, in assay [10], the “effect in adjuvant arthritis model” value is given as “effective”.
“secorapamycin 42-ester with succinic acid conjugate with 5-fluoresceinamine [Example A3]”: the polarization reading in assay [2] (A3 in presence of FKBP12 (background levels)) was determined as 79 mP; in assay [4] (A3 in presence of RAP-42-OVAF2#1MoAb) it was 178 mP. Besides, in [3] (A3 tracer alone), the “background reading (polarization)” value came out at 75 mP.
In assay [5] (first evaluation), `CO[C@H]1C[C@@H]2CC[C@@H](C)[C@@](O)(O2)C(=O)C(=O)N2CCCC[C@H]2C(=O)O[C@H]([C@H](C)C[C@@H]2CC[C@@H](OC(=O)CNC(=O)CCCC[C@@H]3SC[C@@H]4NC(=O)N[C@@H]43)[C@H](OC)C2)CC(=O)[C@H](C)/C=C(\C)[C@@H](O)[C@@H](OC)C(=O)[C@H](C)C[C@H](C)/C=C/C=C/C=C/1C` [Example 3, Rapamycin 42-ester with glycylbiotin] displayed an inhibition at 0.0001 µM of 98%, an inhibition at 0.001 µM of 46%, an inhibition at 0.003 µM of 65% and an inhibition at 0.01 µM of 95%. Further, in [5] (first evaluation), 1 µM produced 99% inhibition and the “ratio compared to rapamycin” value came out at 2.39. Besides, the IC50 in [5] (first evaluation, read-out: IC50) is 2.8 nM. In [5] (second evaluation), this compound registered an inhibition at 0.0001 µM of 94%, an inhibition at 0.001 µM of 16%, an inhibition at 0.003 µM of 51% and an inhibition at 0.01 µM of 88%. Besides, in assay [5] (second evaluation), 1 µM produced 96% inhibition and the “ratio compared to rapamycin” value was determined as 0.63. Further, the IC50 in [5] (second evaluation, read-out: IC50) stood at 1.3 nM. Further, the resonance units bound in [11] was found to be 115 resonance units.
